For the experiment, the target named is T1, TYK2 (Homo sapiens, UniProt P29597).
T1 construct: Degradation of TYK2 in cells was quantitatively measured using Meso Scale Discovery (MSD) technology; endogenous in cells; host or cells: OCI-LY10
Description: TYK2 MSD degradation in OCI-LY10 cells. Type of experiment: cell-based. Conditions: TYK2 degradation in OCI-LY10 cells, 4 to 24 hours incubation; for DC50: read-out: TYK2 MSD OCI-LY10 Rel-DC50. As to the method: Example 7. TYK2 MSD Degradation
Degradation of TYK2 in cells was quantitatively measured using Meso Scale Discovery (MSD) technology. OCI-LY10 cells were seeded in 96-well plates with a density of 0.4 million cells per well in 100 μl fresh media. Compounds were then added to the assay plates with a final top concentration of 1 to 10 μM in a 1:3 dilution series with total of 9 doses. The assay plates were then incubated for 4 to 24 hours at 37° C. under […]. The assay plates were then centrifuged for 5 minutes, and the cell pellets were treated with 100 μl/well RIPA lysis buffer (Boston Bioproducts, BP-115D) with protease and phosphatase inhibitors (Roche, 05892791001 and 04906837001). To prepare MSD assay plates (MSD, L15XA), the plates were coated with the capture antibody (Santa Cruz Biotechnology, SC-5271) in PBS, at 40 μl/well. The plates were then incubated overnight at 4° C., washed 3 times with 150 μl/well TBST buffer (Cell Signaling Technology, 9997S) and blocked with 150 μl/well blocking buffer (MSD, R93BA-4). Cell lysates were then added to MSD assay plates and the plates were incubated at room temperature for 1 hour. The plates were then washed 3 times with 150 μl/well TBST buffer and 25 μl/well primary detection antibody (Cell Signaling Technology, #9312). The assay plates were then incubated at room temperature for 1 hour, washed 3 times with 150 μl/well TBST buffer, and 25 μl/well secondary detection antibody, SULFO-TAG anti-rabbit antibody (MSD, R32AB-1) were added. The assay plates were then incubated at room temperature for 1 hour, washed 3 times with 150 μl/well TB ST buffer, and 150 μl/well MSD reading buffer (MSD, R92TC-2) were added. The plates were then analyzed by an MSD reader. The data was analyzed by GraphPad Prism and the dose dependent TYK2 degradation was fit using the four-parameter inhibitor vs. response nonlinear regression.
The letter codes for TYK2 DC50 include: A (<1 nM); B (i to <10 nM); C (10 to 100 nM); D (>100 nM); and E (not tested). The letter codes for TYK2 Dmax % include: A (>90%); B (90 to >75%); C (75 to 50%); D (<50%); and E (not tested).

Bounds are passed on as bounds.

Usually DC50 stands for the midpoint of the concentration-degradation curve.

T1 sequence (P29597 whole entry): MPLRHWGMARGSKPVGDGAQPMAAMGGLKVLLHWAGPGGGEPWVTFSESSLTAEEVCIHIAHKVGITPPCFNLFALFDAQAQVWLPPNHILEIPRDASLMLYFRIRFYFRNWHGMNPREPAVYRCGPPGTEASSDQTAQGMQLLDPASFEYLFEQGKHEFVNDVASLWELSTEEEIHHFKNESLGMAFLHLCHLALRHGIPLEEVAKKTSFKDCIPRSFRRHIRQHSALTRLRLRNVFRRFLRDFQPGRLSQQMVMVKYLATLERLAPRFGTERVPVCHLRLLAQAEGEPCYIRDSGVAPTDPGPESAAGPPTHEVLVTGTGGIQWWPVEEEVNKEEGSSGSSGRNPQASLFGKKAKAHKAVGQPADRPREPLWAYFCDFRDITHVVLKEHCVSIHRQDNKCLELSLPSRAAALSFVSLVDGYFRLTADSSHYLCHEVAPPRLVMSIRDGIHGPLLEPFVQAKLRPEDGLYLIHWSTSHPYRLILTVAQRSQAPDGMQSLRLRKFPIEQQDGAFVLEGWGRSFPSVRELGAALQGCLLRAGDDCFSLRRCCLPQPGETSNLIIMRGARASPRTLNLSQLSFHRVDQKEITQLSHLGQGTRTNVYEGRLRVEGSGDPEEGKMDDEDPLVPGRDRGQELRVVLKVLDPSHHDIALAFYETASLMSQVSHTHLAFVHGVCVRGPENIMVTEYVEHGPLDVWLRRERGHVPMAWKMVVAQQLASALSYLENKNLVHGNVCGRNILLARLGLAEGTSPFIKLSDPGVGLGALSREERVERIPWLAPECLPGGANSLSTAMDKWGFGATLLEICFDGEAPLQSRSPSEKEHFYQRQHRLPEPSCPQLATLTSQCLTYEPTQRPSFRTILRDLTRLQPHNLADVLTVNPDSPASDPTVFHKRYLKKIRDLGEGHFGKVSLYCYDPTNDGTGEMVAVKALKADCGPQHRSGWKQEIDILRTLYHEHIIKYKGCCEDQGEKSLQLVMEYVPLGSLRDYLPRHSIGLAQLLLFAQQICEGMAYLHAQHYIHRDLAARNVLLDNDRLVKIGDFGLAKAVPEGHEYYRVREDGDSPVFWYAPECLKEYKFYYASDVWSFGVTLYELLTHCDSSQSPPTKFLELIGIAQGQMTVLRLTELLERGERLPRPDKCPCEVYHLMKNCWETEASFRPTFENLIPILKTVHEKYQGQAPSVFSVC

For `CNc1cc(N2CCc3c(-c4ccc(CN5CCC(N6CCC(C#Cc7ccc8c(c7)n(C)c(=O)n8C7CCC(=O)NC7=O)CC6)C(F)(F)C5)cn4)cccc32)nn2c(C(=O)N[C@H]3C[C@H]3F)cnc12` (stereo partly shown) [I-86], the “TYK2 MSD OCI-LY10 Dmax %” value is reported as “C (C (75 to 50%))” and the DC50 is less than 10 nM.

Consider `CNc1cc(N2CCc3c(-c4ccc(CN5CC6(CCN(Cc7ccc(N8CCC(=O)NC8=O)c(Cl)c7)CC6(F)F)C5)cn4)cccc32)nn2c(C(=O)N[C@H]3C[C@H]3F)cnc12` [I-87], for which the “TYK2 MSD OCI-LY10 Dmax %” value is given as “D (D (<50%))” and the 50% degradation concentration (DC50) was less than 10 nM.

`CNc1cc(N2CCc3c(-c4ccc(N5CCN(C(=O)c6ccc(Cl)c(N7CCC(=O)NC7=O)c6)CC5)cn4)cccc32)nn2c(C(=O)N[C@@H]3C[C@@H]3F)cnc12` [I-90]: the “TYK2 MSD OCI-LY10 Dmax %” value is given as “D (D (<50%))” and the DC50 was less than 10 nM.

Take `CNc1cc(N2CCc3c(-c4ccc(CN5CCC6(CC5)CCN(C(=O)c5ccc(Cl)c(C7CCC(=O)NC7=O)c5)CC6)cn4)cccc32)nn2c(C(=O)N[C@@H]3C[C@@H]3F)cnc12` (stereo partly shown) [I-91]: the “TYK2 MSD OCI-LY10 Dmax %” value was “B (B (90 to >75%))” and the 50% degradation concentration (DC50) was less than 1 nM.

Turning to `CCNC(=O)c1nnc(Nc2ccc(CN3CC4(CCN(c5cccc6c5n(C)c(=O)n6C5CCC(=O)NC5=O)CC4(F)F)C3)cn2)cc1Nc1cccc(F)c1OC` (stereo not shown) [I-92], the “TYK2 MSD OCI-LY10 Dmax %” value is recorded as “C (C (75 to 50%))” and the 50% degradation concentration (DC50) fell in the range of 10 to 100 nM.

`CNc1cc(N2CCc3c(N4CCC5(CCN(C(=O)c6ccc(Cl)c(N7CCC(=O)NC7=O)c6)CC5)CC4)cccc32)nn2c(C(=O)N[C@@H]3C[C@@H]3F)cnc12` [I-93]: the “TYK2 MSD OCI-LY10 Dmax %” value is “D (D (<50%))” and the DC50 was less than 10 nM.

`CNc1cc(N2CCc3c(N4CCN(C5CCN(C(=O)c6ccc(Cl)c(N7CCC(=O)NC7=O)c6)CC5)CC4)cccc32)nn2c(C(=O)N[C@@H]3C[C@@H]3F)cnc12` [I-94]: the “TYK2 MSD OCI-LY10 Dmax %” value is recorded as “D (D (<50%))” and the half-maximal degradation concentration (DC50) was more than 100 nM.

As to `CNc1cc(N2CCc3c(-c4ccc(CN5CCC6(CC5)CCN(Cc5ccc(Cl)c(N7CCC(=O)NC7=O)c5)CC6)cn4)cccc32)nn2c(C(=O)N[C@@H]3C[C@@H]3F)cnc12` [I-95], the “TYK2 MSD OCI-LY10 Dmax %” value is “D (D (<50%))” and the DC50 is more than 100 nM.

Consider `CNc1cc(N2CCc3c(-c4ccc(CN5CCC6(CCC(Oc7ccc(Cl)c(N8CCC(=O)NC8=O)c7)CC6)CC5)cn4)cccc32)nn2c(C(=O)N[C@@H]3C[C@@H]3F)cnc12` [I-96], for which the “TYK2 MSD OCI-LY10 Dmax %” value is recorded as “D (D (<50%))” and the DC50 is less than 10 nM.

As for `CNc1cc(-c2cccc(N3CCN(Cc4ccc5c(c4)n(C)c(=O)n5C4CCC(=O)NC4=O)CC3)n2)nn2c(C(=O)NC3CC3)cnc12` (stereo not shown) [I-198], the “TYK2 MSD OCI-LY10 Dmax %” value is “D (D (<50%))” and the DC50 was more than 100 nM.

Regarding `CNc1cc(N2CCc3c(CN4CCC(N5CCC6(CCN(c7ccc8c(c7)n(C)c(=O)n8C7CCC(=O)NC7=O)CC6)CC5)C(F)(F)C4)cccc32)nn2c(C(=O)N[C@@H]3C[C@@H]3F)cnc12` (stereo partly shown) [I-237], the “TYK2 MSD OCI-LY10 Dmax %” value was “B (B (90 to >75%))” and the DC50 was less than 1 nM.

On to `CNc1cc(N2CCc3c(C#CCN4CC5(CCN(C(=O)c6ccc(Cl)c(N7CCC(=O)NC7=O)c6)CC5(F)F)C4)cccc32)nn2c(C(=O)N[C@@H]3C[C@@H]3F)cnc12` [I-241], for which the “TYK2 MSD OCI-LY10 Dmax %” value is given as “C (C (75 to 50%))” and the DC50 is less than 10 nM.

For the compound `CNc1cc(N2CCc3c(C#CCN4CCC5(CCN(C(=O)c6ccc(Cl)c(N7CCC(=O)NC7=O)c6)CC5)C(F)(F)C4)cccc32)nn2c(C(=O)N[C@@H]3C[C@@H]3F)cnc12` [I-242], the “TYK2 MSD OCI-LY10 Dmax %” value is “C (C (75 to 50%))” and the DC50 was less than 10 nM.

`CNc1cc(N2CCc3c(-c4ccc(CN5CCC(N6CCC(Oc7ccc(Cl)c(N8CCC(=O)NC8=O)c7)CC6)C(F)(F)C5)cn4)cccc32)nn2c(C(=O)N[C@@H]3C[C@@H]3F)cnc12` (stereo partly shown) [I-245]: the “TYK2 MSD OCI-LY10 Dmax %” value is “D (D (<50%))” and the half-maximal degradation concentration (DC50) is more than 100 nM.

As to `CNc1cc(N2CCc3c(-c4ccc(CN5CC6(CCN(C(=O)c7ccc(Cl)c(N8CCC(=O)NC8=O)c7)CC6)C5)nc4)cccc32)nn2c(C(=O)N[C@@H]3C[C@@H]3F)cnc12` [I-247], the “TYK2 MSD OCI-LY10 Dmax %” value was “B (B (90 to >75%))” and the DC50 was less than 10 nM.

As for `CNc1cc(N2CCc3c(-c4cc(N5CCC6(CCN(C(=O)c7ccc(Cl)c(N8CCC(=O)NC8=O)c7)CC6)CC5)ccn4)cccc32)nn2c(C(=O)N[C@@H]3C[C@@H]3F)cnc12` [I-248], the “TYK2 MSD OCI-LY10 Dmax %” value was “C (C (75 to 50%))” and the 50% degradation concentration (DC50) was less than 10 nM.

Turning to `CNc1cc(N2CCc3c(-c4ccc(N5CCC6(CCN(C(=O)c7ccc(Cl)c(N8CCC(=O)NC8=O)c7)CC6)CC5)cn4)cccc32)nn2c(C(=O)N[C@@H]3C[C@@H]3F)cnc12` [I-249], the “TYK2 MSD OCI-LY10 Dmax %” value is “D (D (<50%))” and the 50% degradation concentration (DC50) is more than 100 nM.

With `CNc1cc(N2CCc3c(-c4ncc(CN5CC6(CCN(C(=O)c7ccc(Cl)c(N8CCC(=O)NC8=O)c7)CC6)C5)cn4)cccc32)nn2c(C(=O)N[C@@H]3C[C@@H]3F)cnc12` [I-250], the “TYK2 MSD OCI-LY10 Dmax %” value is “B (B (90 to >75%))” and the half-maximal degradation concentration (DC50) was less than 1 nM.

Consider `CNc1cc(N2CCc3c(-c4ccc(CN5CCC6(CCC(Nc7ccc(Cl)c(C8CCC(=O)NC8=O)c7)CC6)CC5)cn4)cccc32)nn2c(C(=O)N[C@@H]3C[C@@H]3F)cnc12` (stereo partly shown) [I-251], for which the “TYK2 MSD OCI-LY10 Dmax %” value is “C (C (75 to 50%))” and the 50% degradation concentration (DC50) was less than 10 nM.

For the compound `CNc1cc(N2CCc3c(-c4ccc(CC5CC6(CCN(C(c7ccc(Cl)c(N8CCC(=O)NC8=O)c7)C(F)(F)F)CC6)C5)cn4)cccc32)nn2c(C(=O)N[C@@H]3C[C@@H]3F)cnc12` (stereo partly shown) [I-272], the “TYK2 MSD OCI-LY10 Dmax %” value was “D (D (<50%))” and the DC50 is more than 100 nM.

For the compound `CNc1cc(N2CCc3c(-c4ccc(CN5CCC(N6CC(N7CCN(c8cccc9c8n(C)c(=O)n9C8CCC(=O)NC8=O)CC7)C6)C(F)(F)C5)cn4)cccc32)nn2c(C(=O)N[C@@H]3C[C@@H]3F)cnc12` (stereo partly shown) [I-277], the “TYK2 MSD OCI-LY10 Dmax %” value is recorded as “B (B (90 to >75%))” and the DC50 was less than 1 nM.

As for `CNc1cc(N2CCc3c(-c4ccc(CN5CCC(N6CC7(CCN(c8cccc9c8n(C)c(=O)n9C8CCC(=O)NC8=O)CC7)C6)C(F)(F)C5)cn4)cccc32)nn2c(C(=O)N[C@@H]3C[C@@H]3F)cnc12` (stereo partly shown) [I-279], the “TYK2 MSD OCI-LY10 Dmax %” value was “B (B (90 to >75%))” and the half-maximal degradation concentration (DC50) was less than 10 nM.

`CNc1cc(N2CCc3c(-c4ccc(CN5CCC(N6CCC7(CC6)CN(c6cccc8c6n(C)c(=O)n8C6CCC(=O)NC6=O)C7)C(F)(F)C5)cn4)cccc32)nn2c(C(=O)N[C@@H]3C[C@@H]3F)cnc12` (stereo partly shown) [I-280]: the “TYK2 MSD OCI-LY10 Dmax %” value was “B (B (90 to >75%))” and the half-maximal degradation concentration (DC50) is less than 10 nM.

Take `CNc1cc(N2CCc3c(-c4ccc(CN5CCC(N6CCC7(CCN(c8cccc9c8n(C)c(=O)n9C8CCC(=O)NC8=O)CC7)CC6)C(F)(F)C5)cn4)cccc32)nn2c(C(=O)N[C@@H]3C[C@@H]3F)cnc12` (stereo partly shown) [I-281]: the “TYK2 MSD OCI-LY10 Dmax %” value is reported as “C (C (75 to 50%))” and the 50% degradation concentration (DC50) was less than 10 nM.

As for `CNc1cc(N2CCc3c(-c4ccc(CN5CCC(N6CC(N7CCN(c8ccc9c(c8)n(C)c(=O)n9C8CCC(=O)NC8=O)CC7)C6)C(F)(F)C5)cn4)cccc32)nn2c(C(=O)N[C@@H]3C[C@@H]3F)cnc12` (stereo partly shown) [I-282], the “TYK2 MSD OCI-LY10 Dmax %” value was “B (B (90 to >75%))” and the DC50 is less than 1 nM.

Turning to `CNc1cc(N2CCc3c(N4CCN(C5CC6(CCN(C(=O)c7ccc(Cl)c(N8CCC(=O)NC8=O)c7)CC6)C5)CC4)cccc32)nn2c(C(=O)N[C@@H]3C[C@@H]3F)cnc12` [I-283], the “TYK2 MSD OCI-LY10 Dmax %” value is reported as “D (D (<50%))” and the 50% degradation concentration (DC50) is more than 100 nM.

With `CNc1cc(N2CCc3c(N4CCN(C5CCC6(CC5)CCN(C(=O)c5ccc(Cl)c(N7CCC(=O)NC7=O)c5)CC6)CC4)cccc32)nn2c(C(=O)N[C@@H]3C[C@@H]3F)cnc12` [I-284], the “TYK2 MSD OCI-LY10 Dmax %” value is on record as “D (D (<50%))” and the 50% degradation concentration (DC50) was more than 100 nM.

Turning to `CNc1cc(N2CCc3c(N4CCN(C5CCN(C6CCN(C(=O)c7ccc(Cl)c(N8CCC(=O)NC8=O)c7)CC6)CC5)CC4)cccc32)nn2c(C(=O)N[C@@H]3C[C@@H]3F)cnc12` [I-287], the “TYK2 MSD OCI-LY10 Dmax %” value was “D (D (<50%))” and the 50% degradation concentration (DC50) is more than 100 nM.

Take `CNc1cc(N2CCc3c(N4CCN(C5CN(C6CCN(C(=O)c7ccc(Cl)c(N8CCC(=O)NC8=O)c7)CC6)C5)CC4)cccc32)nn2c(C(=O)N[C@@H]3C[C@@H]3F)cnc12` [I-288]: the “TYK2 MSD OCI-LY10 Dmax %” value is given as “D (D (<50%))” and the 50% degradation concentration (DC50) is more than 100 nM.
